In this experiment the target is T1, α-xylosidase (Xylsa) (Saccharolobus solfataricus, UniProt Q9P999).
T1 sequence (Q9P999 1-731): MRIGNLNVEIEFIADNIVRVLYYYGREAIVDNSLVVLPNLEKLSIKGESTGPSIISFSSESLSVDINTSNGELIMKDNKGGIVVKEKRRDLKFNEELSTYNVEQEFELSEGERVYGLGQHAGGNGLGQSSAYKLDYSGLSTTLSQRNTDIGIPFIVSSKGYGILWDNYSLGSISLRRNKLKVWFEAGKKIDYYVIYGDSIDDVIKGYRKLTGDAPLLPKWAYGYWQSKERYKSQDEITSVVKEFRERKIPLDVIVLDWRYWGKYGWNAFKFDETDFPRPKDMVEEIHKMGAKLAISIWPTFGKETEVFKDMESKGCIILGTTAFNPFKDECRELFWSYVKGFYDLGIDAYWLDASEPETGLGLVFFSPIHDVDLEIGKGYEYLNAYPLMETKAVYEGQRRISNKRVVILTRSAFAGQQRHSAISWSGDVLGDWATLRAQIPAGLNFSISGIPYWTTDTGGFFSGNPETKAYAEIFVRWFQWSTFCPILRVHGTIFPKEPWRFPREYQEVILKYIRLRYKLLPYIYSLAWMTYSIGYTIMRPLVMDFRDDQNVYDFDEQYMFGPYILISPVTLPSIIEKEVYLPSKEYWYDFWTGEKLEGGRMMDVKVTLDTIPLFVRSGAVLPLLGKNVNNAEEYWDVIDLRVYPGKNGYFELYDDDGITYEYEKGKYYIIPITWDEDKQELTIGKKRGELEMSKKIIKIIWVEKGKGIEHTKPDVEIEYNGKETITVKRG
In words: HPLC and ESI-MS of digestion product. The class given is biochemical. The settings on record: 150 mM sodium acetate pH 5.5, 65 °C, 3 h; second step, gives G3.

Molecules are shown by their SMILES.

Turning to `Cc1cc(=O)oc2cc(O[C@@H]3O[C@H](C(=O)O)[C@@H](O)[C@H](O[C@H]4OC[C@@H](O)[C@H](O[C@@H]5O[C@H](C(=O)O)[C@@H](O)[C@H](O[C@H]6OC[C@@H](O)[C@H](O)[C@H]6O)[C@H]5O)[C@H]4O)[C@H]3O)ccc12` [G4], the “HPLC and ESI-MS of digestion product” value was “The product of the first step of G5 digestion was incubated with Xylsa”.

Values taken from publication PMC5030134 (Nature chemical biology, 2016).
